Results as given in US9902702B2, “Spirocycloheptanes as inhibitors of rock” (BRISTOL-MYERS SQUIBB COMPANY, priority 2014, dated 2018).

target: ROCK2 (Homo sapiens, UniProt O75116); assay: ROCK assay: phosphorylation of FITC peptide substrate, LABCHIP 3000 mobility shift; type: biochemical; settings: 5 μM ATP, 1.5 μM peptide substrate; read-out: ROCK2 Activity (ROCK IC50 range)
Procedure: The effectiveness of compounds of the present invention as ROCK inhibitors can be determined in a 30 μL assay containing 20 mM HEPES, pH 7.5, 20 mM MgCl2, 0.015% Brij-35, 4 mM DTT, 5 μM ATP and 1.5 μM peptide substrate (FITC-AHA-AKRRRLSSLRA-OH). Compounds were dissolved in DMSO so that the final concentration of DMSO was <2%, and the reaction was initiated with Rho kinase variants. After incubation, the reaction was terminated by the addition of EDTA and the phosphorylated and non-phosphorylated peptides separated using a LABCHIP® 3000 Reader (Caliper Life Sciences). […] Compounds were tested in dose-response format, and the inhibition of kinase activity was calculated at each concentration of compound. The inhibition data were fit using a curve-fitting program to determine the IC50; i.e., the concentration of compound required to inhibit 50% of kinase activity.
Representative Examples were tested in the ROCK assay described above and found having ROCK inhibitory activity.

Chain of ROCK2 (O75116 whole entry, species assumed): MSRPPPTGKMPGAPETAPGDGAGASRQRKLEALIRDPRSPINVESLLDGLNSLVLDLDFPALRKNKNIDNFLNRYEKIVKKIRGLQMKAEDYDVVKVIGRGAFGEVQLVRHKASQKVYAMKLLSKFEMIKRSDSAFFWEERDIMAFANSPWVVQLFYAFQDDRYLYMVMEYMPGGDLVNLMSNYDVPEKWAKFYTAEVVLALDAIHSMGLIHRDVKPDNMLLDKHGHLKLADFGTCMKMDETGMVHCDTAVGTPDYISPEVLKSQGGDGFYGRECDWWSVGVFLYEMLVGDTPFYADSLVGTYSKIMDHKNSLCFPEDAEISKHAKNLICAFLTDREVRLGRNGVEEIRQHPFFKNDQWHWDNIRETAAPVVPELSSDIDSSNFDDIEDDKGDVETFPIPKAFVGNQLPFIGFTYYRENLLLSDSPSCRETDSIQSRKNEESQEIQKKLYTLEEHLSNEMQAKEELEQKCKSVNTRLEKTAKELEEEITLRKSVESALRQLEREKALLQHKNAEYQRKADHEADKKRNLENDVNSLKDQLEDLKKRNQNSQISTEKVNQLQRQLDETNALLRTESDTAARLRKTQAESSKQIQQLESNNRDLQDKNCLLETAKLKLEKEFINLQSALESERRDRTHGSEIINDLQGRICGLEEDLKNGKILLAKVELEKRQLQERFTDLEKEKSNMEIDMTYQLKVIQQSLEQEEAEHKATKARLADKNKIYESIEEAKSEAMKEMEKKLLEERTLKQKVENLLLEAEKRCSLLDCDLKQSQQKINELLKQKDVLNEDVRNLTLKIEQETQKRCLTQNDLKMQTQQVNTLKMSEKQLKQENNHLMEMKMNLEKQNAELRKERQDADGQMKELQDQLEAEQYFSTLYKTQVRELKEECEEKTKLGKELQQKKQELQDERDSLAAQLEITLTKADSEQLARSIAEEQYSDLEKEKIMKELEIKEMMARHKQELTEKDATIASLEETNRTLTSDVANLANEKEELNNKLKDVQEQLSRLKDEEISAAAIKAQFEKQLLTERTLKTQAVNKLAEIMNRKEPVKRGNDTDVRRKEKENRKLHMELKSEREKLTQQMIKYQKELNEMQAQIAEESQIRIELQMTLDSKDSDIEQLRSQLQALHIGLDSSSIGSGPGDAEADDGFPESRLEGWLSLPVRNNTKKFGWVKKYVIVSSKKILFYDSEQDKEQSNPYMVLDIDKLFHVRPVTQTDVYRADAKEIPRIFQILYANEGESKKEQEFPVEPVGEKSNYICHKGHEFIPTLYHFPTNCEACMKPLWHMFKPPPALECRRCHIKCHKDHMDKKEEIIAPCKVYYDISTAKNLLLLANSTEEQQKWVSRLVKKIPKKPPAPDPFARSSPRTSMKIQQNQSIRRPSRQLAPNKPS

| SMILES | IC50 |
| --- | --- |
| Cn1nc(C(=O)N[C@H]2CC3(C2)C[C@H](c2n[nH]c(=O)c4ccccc42)C3)c2ccccc21 (single isomer, unassigned) [Example 17] | 100 to 2100 nM |
| O=C(N[C@H]1CC2(C1)C[C@H](c1n[nH]c(=O)c3ccccc31)C2)c1ccn(CC(F)(F)F)n1 (single isomer, unassigned) [Example 18] | 100 to 2100 nM |
| O=C(NC1CC2(C1)CC(c1n[nH]c(=O)c3ccccc13)C2)C1Cc2ccccc2C1 (stereo not shown) [Example 1, N-[6-(4-oxo-3,4-dihydrophthalazin-1-yl)spiro[3.3]heptan-2-yl]-2,3-dihydro-1H-indene-2-carboxamide] | 100 to 2100 nM |
| CN(C)c1ccc(C(=O)NC2CC3(C2)CC(c2n[nH]c(=O)c4ccccc24)C3)cc1 (stereo not shown) [Example 2, 4-(dimethylamino)-N-[6-(4-oxo-3,4-dihydrophthalazin-1-yl)spiro[3.3]heptan-2-yl]benzamide] | 100 to 2100 nM |
| O=C(Cc1cccc2ccccc12)NC1CC2(C1)CC(c1n[nH]c(=O)c3ccccc13)C2 (stereo not shown) [Example 3, 2-(naphthalen-1-yl)-N-[6-(4-oxo-3,4-dihydrophthalazin-1-yl)spiro[3.3]heptan-2-yl]acetamide] | 100 to 2100 nM |
| O=C(Cc1ccc2ccccc2c1)NC1CC2(C1)CC(c1n[nH]c(=O)c3ccccc13)C2 (stereo not shown) [Example 4, 2-(naphthalen-2-yl)-N-[6-(4-oxo-3,4-dihydrophthalazin-1-yl)spiro[3.3]heptan-2-yl]acetamide] | 100 to 2100 nM |
| O=C(CCc1ccccc1)NC1CC2(C1)CC(c1n[nH]c(=O)c3ccccc13)C2 (stereo not shown) [Example 6, N-[6-(4-oxo-3,4-dihydrophthalazin-1-yl)spiro[3.3]heptan-2-yl]-3-phenylpropanamide] | 100 to 2100 nM |
| Cc1nn(-c2ccccc2)cc1C(=O)NC1CC2(C1)CC(c1n[nH]c(=O)c3ccccc13)C2 (stereo not shown) [Example 8, 3-methyl-N-[6-(4-oxo-3,4-dihydrophthalazin-1-yl)spiro[3.3]heptan-2-yl]-1-phenyl-1H-pyrazole-4-carboxamide] | 15.1 to 100 nM |
| CC(C)(C)n1cc(C(=O)NC2CC3(C2)CC(c2n[nH]c(=O)c4ccccc24)C3)cn1 (stereo not shown) [Example 9, 1-tert-butyl-N-[6-(4-oxo-3,4-dihydrophthalazin-1-yl)spiro[3.3]heptan-2-yl]-1H-pyrazole-4-carboxamide] | 15.1 to 100 nM |
| O=C(NC1CC2(C1)CC(c1n[nH]c(=O)c3ccccc13)C2)c1ccn(-c2ccccc2)n1 (stereo not shown) [Example 10, N-[6-(4-oxo-3,4-dihydrophthalazin-1-yl)spiro[3.3]heptan-2-yl]-1-phenyl-1H-pyrazole-3-carboxamide] | 100 to 2100 nM |
| CC(C)(O)Cn1nc(C(=O)NC2CC3(C2)CC(c2n[nH]c(=O)c4ccccc24)C3)c2ccccc21 (stereo not shown) [Example 11, 1-(2-hydroxy-2-methylpropyl)-N-[6-(4-oxo-3,4-dihydrophthalazin-1-yl)spiro[3.3]heptan-2-yl]-1H-indazole-3-carboxamide] | 15.1 to 100 nM |
| O=C(NC1CC2(C1)CC(c1n[nH]c(=O)c3ccccc13)C2)c1cnn(-c2ccccc2)c1 (stereo not shown) [Example 12, N-[6-(4-oxo-3,4-dihydrophthalazin-1-yl)spiro[3.3]heptan-2-yl]-1-phenyl-1H-pyrazole-4-carboxamide] | 15.1 to 100 nM |
| O=C(N[C@H]1CC2(C1)C[C@H](c1n[nH]c(=O)c3ccccc31)C2)c1ccn(CC(F)F)n1 (stereo partly drawn) [Example 19, 1-(2,2-Difluoroethyl)-N-[(aR)-6-(4-oxo-3,4-dihydrophthalazin-1-yl)spiro[3.3]heptan-2-yl]-1H-pyrazole-3-carboxamide] | 100 to 2100 nM |
| Cn1nc(C(=O)NC2CC3(C2)CC(c2n[nH]c(=O)c4ccccc24)C3)cc1OC(F)F [Example 28, 5-(difluoromethoxy)-1-methyl-N-[(aR)-6-(4-oxo-3,4-dihydrophthalazin-1-yl)spiro[3.3]heptan-2-yl]-1H-pyrazole-3-carboxamide] | 15.1 to 100 nM |
| CC(C)(O)Cn1ccc(C(=O)NC2CC3(C2)CC(c2n[nH]c(=O)c4ccccc24)C3)n1 [Example 30, 1-(2-hydroxy-2-methylpropyl)-N-[(aR)-6-(4-oxo-3,4-dihydrophthalazin-1-yl)spiro[3.3]heptan-2-yl]-1H-pyrazole-3-carboxamide] | 15.1 to 100 nM |
| Cc1nc(N2CCOCC2)sc1C(=O)NC1CC2(C1)CC(c1n[nH]c(=O)c3ccccc13)C2 [Example 34, 4-methyl-2-(morpholin-4-yl)-N-[(aR)-6-(4-oxo-3,4-dihydrophthalazin-1-yl)spiro[3.3]heptan-2-yl]-1,3-thiazole-5-carboxamide] | 15.1 to 100 nM |

The next lines start with the values.

| IC50 | SMILES |
| --- | --- |
| 2.01 to 5 nM | Cn1nc(C(=O)N[C@H]2CC3(C2)C[C@H](c2n[nH]c(=O)c4ccccc42)C3)c2ccccc21 (single isomer, unassigned) [Example 14] |
| 5.1 to 15 nM | O=C(N[C@H]1CC2(C1)C[C@H](c1n[nH]c(=O)c3ccccc31)C2)c1ccn(CC(F)(F)F)n1 (single isomer, unassigned) [Example 15] |
| 2.01 to 5 nM | O=C(N[C@H]1CC2(C1)C[C@H](c1n[nH]c(=O)c3ccccc31)C2)c1ccn(CC(F)F)n1 (single isomer, unassigned) [Example 16] |
| 2.01 to 5 nM | CC(C)(O)Cn1nc(C(=O)NC2CC3(C2)CC(c2n[nH]c(=O)c4ccccc24)C3)c2ccccc21 (single isomer, unassigned) [Example 21] |
| 2.01 to 5 nM | Cn1nc(C(=O)NC2CC3(C2)CC(c2n[nH]c(=O)c4ccccc24)C3)c2ccccc21 (stereo not shown) [Example 5, 1-methyl-N-[6-(4-oxo-3,4-dihydrophthalazin-1-yl)spiro[3.3]heptan-2-yl]-1H-indazole-3-carboxamide] |
| 5.1 to 15 nM | O=C(NC1CC2(C1)CC(c1n[nH]c(=O)c3ccccc13)C2)c1ccn(CC(F)(F)F)n1 (stereo not shown) [Example 7, N-[6-(4-oxo-3,4-dihydrophthalazin-1-yl)spiro[3.3]heptan-2-yl]-1-(2,2,2-trifluoroethyl)-1H-pyrazole-3-carboxamide] |
| 2.01 to 5 nM | Cc1c(C(=O)NC2CC3(C2)CC(c2n[nH]c(=O)c4ccccc24)C3)cnn1-c1ccccc1 (stereo not shown) [Example 13, 5-methyl-N-[6-(4-oxo-3,4-dihydrophthalazin-1-yl)spiro[3.3]heptan-2-yl]-1-phenyl-1H-pyrazole-4-carboxamide] |
| 0.2 to 2 nM | Cc1c(C(=O)NC2CC3(C2)CC(c2n[nH]c(=O)c4ccccc24)C3)cnn1-c1ccccc1 [Example 20, 5-methyl-N-[(aR)-6-(4-oxo-3,4-dihydrophthalazin-1-yl)spiro[3.3]heptan-2-yl]-1-phenyl-1H-pyrazole-4-carboxamide] |
| 5.1 to 15 nM | O=C(NC1CC2(C1)CC(c1n[nH]c(=O)c3ccccc13)C2)c1ccn(CCC(F)(F)F)n1 [Example 22, N-[(aR)-6-(4-oxo-3,4-dihydrophthalazin-1-yl)spiro[3.3]heptan-2-yl]-1-(3,3,3-trifluoropropyl)-1H-pyrazole-3-carboxamide] |
| 5.1 to 15 nM | O=C(NC1CC2(C1)CC(c1n[nH]c(=O)c3ccccc13)C2)c1ccn(CC2CC2)n1 [Example 23, 1-(cyclopropylmethyl)-N-[(aR)-6-(4-oxo-3,4-dihydrophthalazin-1-yl)spiro[3.3]heptan-2-yl]-1H-pyrazole-3-carboxamide] |
| 2.01 to 5 nM | Cn1nc(C2CC2)cc1C(=O)NC1CC2(C1)CC(c1n[nH]c(=O)c3ccccc13)C2 [Example 24, 3-cyclopropyl-1-methyl-N-[(aR)-6-(4-oxo-3,4-dihydrophthalazin-1-yl)spiro[3.3]heptan-2-yl]-1H-pyrazole-5-carboxamide] |
| 5.1 to 15 nM | Cn1nc(C(F)(F)F)cc1C(=O)NC1CC2(C1)CC(c1n[nH]c(=O)c3ccccc13)C2 [Example 25, 1-methyl-N-[(aR)-6-(4-oxo-3,4-dihydrophthalazin-1-yl)spiro[3.3]heptan-2-yl]-3-(trifluoromethyl)-1H-pyrazole-5-carboxamide] |
| 2.01 to 5 nM | Cn1nc(C(=O)NC2CC3(C2)CC(c2n[nH]c(=O)c4ccccc24)C3)cc1C1CC1 [Example 26, 5-cyclopropyl-1-methyl-N-[(aR)-6-(4-oxo-3,4-dihydrophthalazin-1-yl)spiro[3.3]heptan-2-yl]-1H-pyrazole-3-carboxamide] |
| 5.1 to 15 nM | O=C(NC1CC2(C1)CC(c1n[nH]c(=O)c3ccccc13)C2)c1cnn(C2CC2)c1 [Example 27, 1-cyclopropyl-N-[(aR)-6-(4-oxo-3,4-dihydrophthalazin-1-yl)spiro[3.3]heptan-2-yl]-1H-pyrazole-4-carboxamide] |
| 5.1 to 15 nM | O=C(NC1CC2(C1)CC(c1n[nH]c(=O)c3ccccc13)C2)c1ccn(C2CC2)n1 [Example 29, 1-cyclopropyl-N-[(aR)-6-(4-oxo-3,4-dihydrophthalazin-1-yl)spiro[3.3]heptan-2-yl]-1H-pyrazole-3-carboxamide] |
| 2.01 to 5 nM | CC(C)(O)Cn1nc(C(=O)NC2CC3(C2)CC(c2n[nH]c(=O)c4ccccc24)C3)c2ccc(F)cc21 [Example 31, 6-fluoro-1-(2-hydroxy-2-methylpropyl)-N-[(aR)-6-(4-oxo-3,4-dihydrophthalazin-1-yl)spiro[3.3]heptan-2-yl]-1H-indazole-3-carboxamide] |
| 2.01 to 5 nM | Cc1nn(CC(F)F)cc1C(=O)NC1CC2(C1)CC(c1n[nH]c(=O)c3ccccc13)C2 [Example 32, 1-(2,2-difluoroethyl)-3-methyl-N-[(aR)-6-(4-oxo-3,4-dihydrophthalazin-1-yl)spiro[3.3]heptan-2-yl]-1H-pyrazole-4-carboxamide] |
| 0.2 to 2 nM | Cc1nc(N2CCCCC2)sc1C(=O)N[C@H]1CC2(C1)C[C@H](c1n[nH]c(=O)c3ccccc31)C2 (stereo partly drawn) [Example 33, 4-Methyl-N-((aR)-6-(4-oxo-3,4-dihydrophthalazin-1-yl)spiro[3.3]heptan-2-yl)-2-(piperidin-1-yl)thiazole-5-carboxamide] |
